Among the data in PubChem BioAssay (NCI) are TGI values, retold here.

“And” between values parts separate entries of the source, which are not always exact repeats. Identical values can stand only once.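 48-hour exposure; five concentrations; linearly interpolated endpoints. TGI is the concentration that stops growth completely.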 A value given as a limit tells only on which side of the number the result lay.

Test systems include 786-0 renal; HL-60(TB) leukemia; IGROV1 ovarian; MALME-3M melanoma; MCF7 breast; MDA-N; NCI-H23 lung; OVCAR-3 ovarian; SW-620 colon; T-47D breast; U251 CNS.
What all share (assay): growth of human tumour cells (NCI), 48 h

Turning to `O=[N+]([O-])c1ccc(N/N=C/c2ccc(OCCCCCCCCCCCO)cc2)c([N+](=O)[O-])c1`, the TGI is 4 µM in the test on 786-0 renal; 31.2 µM with HL-60(TB) leukemia; 67.4 µM with IGROV1 ovarian; 4.61 µM with MALME-3M melanoma; over 93.6 µM in the test on MCF7 breast; 13 µM in the test on MDA-N. For the same molecule, the TGI in the test with NCI-H23 lung was 45.8 µM; in the test on OVCAR-3 ovarian, over 100 µM; in the test with SW-620 colon, over 100 µM; with T-47D breast, over 100 µM; with U251 CNS, 10.7 µM.
On to `N[C@H]1CCCC[C@@H]1N1C(=O)c2ccccc2C1(O)c1ccc(Cl)cc1` (some centres not stated), for which the TGI with 786-0 renal is 26.4 µM; with HL-60(TB) leukemia, 20 µM; with IGROV1 ovarian, 25.7 µM; with MALME-3M melanoma, 27.8 µM; in the test on MCF7 breast, 27.5 µM; with MDA-N, 25 µM. The TGI with NCI-H23 lung was 28.6 µM; in the test with OVCAR-3 ovarian it was 21.5 µM; in the test with SW-620 colon, 24.2 µM; in the test with T-47D breast, 14.7 µM; in the test with U251 CNS, 26.6 µM.
In the case of `COC(=O)C1OC(O[C@H]2CC[C@]3(C)[C@H]4CC=C5[C@@H]6CC(C)(C)CC[C@]6(C(=O)OC6OCC(O)C(O)C6OC6OC(C)C(OC7OCC(O)C(O)C7O)C(O)C6O)CC[C@@]5(C)[C@]4(C)CC[C@H]3C2(C)C)C(O)C(O)C1O` (some centres not stated), the TGI in the test with 786-0 renal was 29.2 µM and 32.4 µM; in the test with HL-60(TB) leukemia, 41.3 µM and 35.1 µM; in the test with IGROV1 ovarian, 75 µM and > 100 µM; with MALME-3M melanoma, 29 µM and 32.8 µM; in the test with MCF7 breast it was 27.2 µM and 25.7 µM; in the test on MDA-N, 29.3 µM and 33.1 µM. Further, the TGI with NCI-H23 lung is 29.1 µM and 30 µM; in the test on OVCAR-3 ovarian, 97.6 µM and > 100 µM; in the test with SW-620 colon, 39.5 µM and 48.7 µM; with T-47D breast, > 100 µM and 54.2 µM; in the test on U251 CNS, 33.3 µM and 33.8 µM.
In the case of `COC(=O)c1ccccc1C1CN=NC12Cc1cc(C)ccc1C2=O` (configuration not stated), the TGI in the test on 786-0 renal is over 100 µM; with HL-60(TB) leukemia, over 100 µM; with IGROV1 ovarian, over 100 µM; with MALME-3M melanoma, over 100 µM; in the test with MCF7 breast it was 75.4 µM; with MDA-N, over 100 µM. Further, the TGI in the test on NCI-H23 lung, in the test with OVCAR-3 ovarian, in the test with SW-620 colon, in the test on T-47D breast and in the test on U251 CNS was over 100 µM throughout.
In the case of `COc1cc(CNNC(N)=S)cc(OC)c1OC`, the TGI in the test with 786-0 renal, in the test on HL-60(TB) leukemia, in the test on IGROV1 ovarian, with MALME-3M melanoma, with MCF7 breast and in the test with MDA-N was over 100 µM throughout. The TGI with NCI-H23 lung, in the test with OVCAR-3 ovarian, in the test on SW-620 colon, in the test on T-47D breast and in the test on U251 CNS was over 100 µM in each case.
For `C=CC(Cl)(CBr)CCC(Br)C(C)(C)Cl` (configuration not stated), the TGI with 786-0 renal was found to be 28.1 µM; in the test with HL-60(TB) leukemia it was 19.3 µM; in the test on IGROV1 ovarian, 26.3 µM; with MALME-3M melanoma, 35.8 µM; in the test on MCF7 breast, 20.1 µM; with MDA-N, 32.4 µM. In addition, the TGI in the test on NCI-H23 lung is 31.3 µM; in the test with OVCAR-3 ovarian, 33.2 µM; in the test on SW-620 colon, 26.2 µM; in the test with T-47D breast it was 39.6 µM; in the test with U251 CNS it was 27.4 µM.
In the case of `O=C1C(Cl)=C(Nc2ccc(S(=O)(=O)Nc3ccccn3)cc2)C(=O)c2ccccc21`, the TGI was 26.1 µM with 786-0 renal; over 50.5 µM in the test with HL-60(TB) leukemia; 23.1 µM with IGROV1 ovarian; 7.6 µM in the test on MALME-3M melanoma; 12.9 µM in the test on MCF7 breast; 13.9 µM with MDA-N. Moreover, the TGI was 25.2 µM with NCI-H23 lung; 15.6 µM in the test on OVCAR-3 ovarian; over 73.5 µM with SW-620 colon; 39.7 µM with T-47D breast; 19.3 µM in the test on U251 CNS.
`COc1ccc(C(=O)/C=C/c2cc(O)c(O)c(F)c2F)c(OC)c1`: the TGI was 41.9 µM in the test on 786-0 renal; 25.5 µM in the test on HL-60(TB) leukemia; over 100 µM in the test on IGROV1 ovarian; 31.3 µM in the test on MALME-3M melanoma; 49.1 µM in the test with MCF7 breast; 80.3 µM with MDA-N. In addition, the TGI is 41.7 µM with NCI-H23 lung; 85.5 µM with OVCAR-3 ovarian; over 100 µM with SW-620 colon; over 100 µM in the test on T-47D breast; 32.1 µM in the test on U251 CNS.
With `Cn1c2ccccc2c(=O)c2cccc(C(=O)NC(CCC(N)=O)C(=O)O)c21` (configuration not stated), the TGI with 786-0 renal was over 100 µM; with HL-60(TB) leukemia it was 0.678 µM; with IGROV1 ovarian it was over 100 µM; with MALME-3M melanoma, over 100 µM; with MCF7 breast, over 100 µM; in the test with MDA-N, over 100 µM. For the same molecule, the TGI in the test with NCI-H23 lung, with OVCAR-3 ovarian, in the test on SW-620 colon, in the test with T-47D breast and in the test on U251 CNS was over 100 µM each time.
In the case of `Nc1onc2c1Cc1c(noc1N)-c1ccccc1-2`, the TGI in the test on 786-0 renal was over 100 µM; with HL-60(TB) leukemia, 49.7 µM; in the test with IGROV1 ovarian, over 100 µM; in the test with MALME-3M melanoma, over 100 µM; in the test on MCF7 breast it was over 100 µM; with MDA-N, over 100 µM. Further, the TGI in the test on NCI-H23 lung, with OVCAR-3 ovarian, in the test on SW-620 colon, with T-47D breast and in the test on U251 CNS was over 100 µM each time.
In the case of `C=C(C)[C@@H]1CCC2=C[C@H](OC2=O)[C@@]2(C)C[C@@H]2C2=CC(C)=C(O2)[C@H]1O`, the TGI with 786-0 renal, with HL-60(TB) leukemia, in the test on IGROV1 ovarian, with MALME-3M melanoma, with MCF7 breast and in the test on MDA-N was over 75 µM throughout. Moreover, the TGI in the test with NCI-H23 lung, in the test on OVCAR-3 ovarian, with SW-620 colon, in the test on T-47D breast and in the test with U251 CNS was over 75 µM in each case.
In the case of `CC(=O)Nc1c(C)cc2c(nc3n2CCC3O)c1[N+](=O)[O-]` (configuration not stated), the TGI with 786-0 renal, in the test on HL-60(TB) leukemia, in the test on IGROV1 ovarian, in the test on MALME-3M melanoma, in the test on MCF7 breast and in the test with MDA-N was over 100 µM throughout. The TGI in the test on NCI-H23 lung, in the test on OVCAR-3 ovarian, in the test with SW-620 colon, in the test on T-47D breast and with U251 CNS was over 100 µM throughout.
